Results: patent US6235731A, “Fused imidazopyridine derivatives as antihyperlipidemic agents” (Takeda Chemical Industries, Ltd., priority 1996, dated 2001)
Where a name gives a salt, the structure may show the parent alone. Read-outs that look alike come from different tables or passages of the source.

Assays:
[1] = tested on: HepG2 cells; assay: Increase in LDL-binding to HepG2 cells; assay type: cell-based; settings: 10 μM test compound, 20 hours, specific human [125I]LDL binding, normalized by protein, read-out: LDL binding (% of control)
Description: Increase in LDL-binding to HepG2 cells LDL-binding was measured according to the method of J. L. Goldstein. HepG2 cells were purchased from ATCC (American type culture collection) and seeded in 6-well plate with collagen coating (Sumitomo Bakelite), and cultured in Eagle's minimum essential medium (MEM) containing 10%-fetal bovine serum at 37° C. for 4 days. […] After washing with phosphate buffered saline cells were incubated with MEM containing 25 mM-HEPES and 1%-bovine serum albumin (fatty acid free) in the presence of human [^125 I]LDL (4 μg/ml) at 6° C. for 2 hours. After washing cells bound [^125 I]LDL was dissociated with dextran sulfate and the radioactivity was measured (total binding). [^125 I]LDL binding to cells was also measured in the presence of LDL (300 μg/ml) as a non-specific binding (NSB). Specific [^125 I]LDL-binding was calculated by subtracting NSB from total binding and was normalized by protein content measured by the method of lowry. Data was expressed as percentage of the control.

[2] = tested on: Golden Syrian hamsters; assay: Cholesterol lowering activity in Golden hamster; assay type: in vivo, Golden Syrian hamster; settings: Mesocricetus auratus, po, 96 h, 20 mg/kg/d orally, once daily for 4 days
Description: Cholesterol lowering activity in Golden hamster Male Golden Syrian hamsters (110-130 g) were maintained freely on water and a laboratory diet (CE-2, Clea Japan Inc., Tokyo). […] Blood was taken from orbital sinus and plasma total cholesterol and triglyceride were measured an automatic analyzer (Hitachi 7070, Hitachi Ltd., Tokyo) using commercial kits (Wako Pure Chemical Industries, Osaka), and plasma HDL-cholesterol using a commercial kit (Kyowa Medex Co., Ltd., Tokyo) before and after the treatment of compound. Non-HDL cholesterol was calculated by subtracting HDL-cholesterol from total cholesterol. |Non-HDL-C (non-HDL-cholesterol): [total cholesterol]-[HDL-cholesterol] |TG: triglyceride

[3] = plasma triglyceride, read-out: TG (% of control)
[4] = plasma, [total cholesterol]-[HDL-cholesterol], read-out: Non-HDL-C (% of control)

Row | Compound | activity at 10 µM [1] [%] | response vs control in vivo at 20 mg/kg [2, 3] [%] | response vs control in vivo at 20 mg/kg [2, 4] [%]
1 | O=C(NCC1CCN(C[C@@H]2COc3ccccc3O2)CC1)C1=Cc2cnc3cccc(n23)S1 [Example 1, (R)-N-[1-(1,4-benzodioxan-2-ylmethyl)piperidin-4-ylmethyl]-5-thia-1,8b-diazaacenaphthylene-4-carboxamide dihydrochloride] | 203 | 78.4 | 68.6
2 | O=C(NCC1CCN(C[C@H]2COc3ccccc3O2)CC1)C1=Cc2cnc3cccc(n23)S1 [Example 2, (S)-N-[1-(1,4-benzodioxan-2-ylmethyl)piperidin-4-ylmethyl]-5-thia-1,8b-diazaacenaphthylene-4-carboxamide] | 172 | 102 | 65.1
3 | O=C(NCC1CCN(CC2COc3ccccc3O2)CC1)C1=Cc2cnc3cccc(n23)S1 (centres unmarked) [Example 3, N-[1-(1,4-benzodioxan-2-ylmethyl)piperidin-4-ylmethyl]-5-thia-1,8b-diazaacenaphthylene-4-carboxamide dihydrochloride] | 194 | 91.3 | 69.5
4 | O=C(C=CC1=Cc2cnc3cccc(n23)S1)NCC1CCN(CCCc2ccccc2)CC1 [Example 9, N-[1-(3-phenylpropan-1-yl)piperidin-4-ylmethyl]-3-(5-thia-1,8b-diazaacenaphthylen-4-yl)acrylamide dihydrochloride] | 247 | 67 | 62.3
5 | O=C(C=CC1=Cc2cnc3cccc(n23)S1)NC1CCN(CCCc2ccccc2)CC1 [Example 10, N-[1-(3-phenylpropan-1-yl)piperidin-4-yl]-3-(5-thia-1,8b-diazaacenaphthylen-4-yl)acrylamide dihydrochloride] | 169 | 70.8 | 61
6 | O=C(NCCCCN1CCC(c2ccccc2)CC1)C1=Cc2cnc3cccc(n23)S1 [Example 26, N-[4-(4-phenylpiperidin-1-yl)butan-1-yl]-5-thia-1,8b-diazaacenaphthylene-4-carboxamide Dihydrochloride] | 189 | 82 | 66.4
7 | O=C(NCCCN1CCC(c2ccccc2)CC1)C1=Cc2cnc3cccc(n23)S1 [Example 27, N-[3-(4-phenylpiperidin-1-yl)propan-1-yl]-5-thia-1,8b-diazaacenaphthylene-4-carboxamide Dihydrochloride] | 168 | 83.9 | 73.9
8 | O=C(NCCCCN1CCC(Cc2ccccc2)CC1)C1=Cc2cnc3cccc(n23)S1 [Example 28, N-[4-(4-benzylpiperidin-1-yl)butan-1-yl]-5-thia-1,8b-diazaacenaphthylene-4-carboxamide Dihydrochloride] | 194 | 61.3 | 62.9
9 | O=C(NCCCN1CCC(Cc2ccccc2)CC1)C1=Cc2cnc3cccc(n23)S1 [Example 29, N-[3-(4-benzylpiperidin-1-yl)propan-1-yl]-5-thia-1,8b-diazaacenaphthylene-4-carboxamide Dihydrochloride] |  | 73.9 | 68.1
10 | O=C(NCCCCN1CCN(Cc2ccccc2)CC1)C1=Cc2cnc3cccc(n23)S1 [Example 32, N-[4-(4-benzyl-1-piperazinyl)butan-1-yl]-5-thia-1,8b-diazaacenaphthylene-4-carboxamide Trihydrochloride] |  | 76.5 | 76.6
11 | O=C(NCCCN1CCN(Cc2ccccc2)CC1)C1=Cc2cnc3cccc(n23)S1 [Example 33, N-[3-(4-benzyl-1-piperazinyl)propan-1-yl]-5-thia-1,8b-diazaacenaphthylene-4-carboxamide Trihydrochloride] |  | 85.6 | 77.1
12 | O=C(NCCCCN1CCc2ccccc2C1)C1=Cc2cnc3cccc(n23)S1 [Example 34, N-[4-(1,2,3,4-tetrahydroisoquinolin-2-yl)butan-1-yl]-5-thia-1,8b-diazaacenaphthylene-4-carboxamide Dihydrochloride] |  | 74.7 | 72.2
13 | O=C(NC1CCN(CCCc2ccccc2)CC1)C1=Cc2cnc3cccc(n23)S1 [Example 36, N-[1-(3-phenylpropan-1-yl)piperidin-4-yl]-5-thia-1,8b-diazaacenaphthylene-4-carboxamide Dihydrochloride] | 218 | 74.7 | 61.9
14 | O=C(NC1CCN(CCCc2ccccc2Cl)CC1)C1=Cc2cnc3cccc(n23)S1 [Example 39, N-[1-[3-(2-chlorophenyl)propan-1-yl]piperidin-4-yl]-5-thia-1,8b-diazaacenaphthylene-4-carboxamide dihydrochloride] |  | 62.6 | 62.7
15 | O=C(NCCCC1CCN(CCCc2ccccc2)CC1)C1=Cc2cnc3cccc(n23)S1 [Example 46, N-[3-(1-(3-phenylpropan-1-yl)piperidin-4-yl)propan-1-yl]-5-thia-1,8b-diazaacenaphthylene-4-carboxamide Dihydrochloride] | 166 | 72.4 | 69.6
16 | O=C(C1=Cc2cnc3cccc(n23)S1)N(Cc1ccccc1)CC1CCN(CCCc2ccccc2)CC1 [Example 52, N-benzyl-N-[1-(3-phenylpropan-1-yl)piperidin-4-ylmethyl]-5-thia-1,8b-diazaacenaphthylene Dihydrochloride] | 183 |  | 
17 | O=C(NCCN1CCN(CCCc2ccccc2)CC1)C1=Cc2cnc3cccc(n23)S1 [Example 58, N-[2-(4-(3-phenylpropan-1-yl)piperazin-1-yl)ethan-1-yl]-5-thia-1,8b-diazaacenaphthylene-4-carboxamide Trihydrochloride] |  | 71.2 | 74
18 | O=C(NCC1CCN(CCCc2ccccc2F)CC1)C1=Cc2cnc3cccc(n23)S1 [Example 67, N-[1-(3-(2-fluorophenyl)propan-1-yl)piperidin-4-ylmethyl]-5-thia-1,8b-diazaacenaphthylene-4-carboxamide Dihydrochloride] | 162 | 67.9 | 62
19 | O=C(NCC1CCN(CCc2ccccc2F)CC1)C1=Cc2cnc3cccc(n23)S1 [Example 68, N-[1-(2-fluorophenethyl)piperidin-4-ylmethyl]-5-thia-1,8b-diazaacenaphthylene-4-carboxamide Dihydrochloride] |  | 74.3 | 58.5
20 | O=C(NCC1CCN(CCc2ccc(F)cc2)CC1)C1=Cc2cnc3cccc(n23)S1 [Example 70, N-[1-(4-fluorophenethyl)piperidin-4-ylmethyl]-5-thia-1,8b-diazaacenaphthylene-4-carboxamide Dihydrochloride] |  | 71.2 | 47.9
21 | O=C(NCC1CCN(CCCc2cccc(F)c2)CC1)C1=Cc2cnc3cccc(n23)S1 [Example 74, N-[1-(3-(3-fluorophenyl)propan-1-yl)piperidin-4-ylmethyl]-5-thia-1,8b-diazaacenaphthylene-4-carboxamide Dihydrochloride] |  | 67.9 | 73.5
22 | O=C(NCC1CCN(CCCc2ccccc2Cl)CC1)C1=Cc2cnc3cccc(n23)S1 [Example 77, N-[1-(3-(2-chlorophenyl)propan-1-yl)piperidin-4-ylmethyl]-5-thia-1,8b-diazaacenaphthylene-4-carboxamide Dihydrochloride] | 168 |  | 
23 | COc1ccccc1CCCN1CCC(CNC(=O)C2=Cc3cnc4cccc(n34)S2)CC1 [Example 80, N-[1-(3-(2-methoxyphenyl)propan-1-yl)piperidin-4-ylmethyl]-5-thia-1,8b-diazaacenaphthylene-4-carboxamide Dihydrochloride] | 248 |  | 
24 | O=C(NCC1CCN(CCCOc2ccc(F)cc2)CC1)C1=Cc2cnc3cccc(n23)S1 [Example 113, N-[1-(3-(4-fluorophenoxy)propan-1-yl)piperidin-4-ylmethyl]-5-thia-1,8b-diazaacenaphthylene-4-carboxamide Dihydrochloride] | 140 |  | 
25 | O=C(NCC1CCN(CCCOc2ccc(F)cc2F)CC1)C1=Cc2cnc3cccc(n23)S1 [Example 117, N-[1-(3-(2,4-difluorophenoxy)propan-1-yl)piperidin-4-ylmethyl]-5-thia-1,8b-diazaacenaphthylene-4-carboxamide Dihydrochloride] | 137 |  | 
